Results published in PubChem BioAssay AID192 (DTP/NCI, 2004).
Values joined by “and” are separate entries in the source; they are usually repeats but may differ in a detail not shown here. Equal entries are not always repeated. Inconclusive results and toxic doses are left out. How the source made its calls: active means survival T/C of 150% or more; inactive means T/C below 125% in these data.

Tested on: BDF1 mice, B16 melanoma ip, median survival T/C
Assay: NCI In Vivo Anticancer Drug Screen. Data for tumor model B16 Melanoma (intraperitoneal) in B6D2F1 (BDF1) mice
Settings: endpoint: median survival time, higher = longer survival
In short: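 Values are ratios of treated (T) to vehicle-control (C) measurements of survival or tumor size in tumor-bearing mice.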

[1] = dose: 50.0 mg/kg/injection, schedule: Q04DX003 (ip), vehicle: Klucel (hydroxypropylcellulose) (HPC)
[2] = dose: 100.0 mg/kg/injection, schedule: Q04DX003 (ip), vehicle: Klucel (hydroxypropylcellulose) (HPC)
[3] = dose: 200.0 mg/kg/injection, schedule: Q04DX003 (ip), vehicle: Klucel (hydroxypropylcellulose) (HPC)
[4] = dose: 100.0 mg/kg/injection, schedule: Q01DX009 (ip), vehicle: saline with Tween-80
[5] = dose: 200.0 mg/kg/injection, schedule: Q01DX009 (ip), vehicle: saline with Tween-80
[6] = dose: 400.0 mg/kg/injection, schedule: Q01DX009 (ip), vehicle: saline with Tween-80

Measured: T/C

CC(CN1CC(=O)NC(=O)C1)N1CC(=O)NC(=O)C1 (centres undefined)
inactive: dose: 3.75 mg/kg/injection, schedule: Q01DX009 (ip), vehicle: alkali diluted with saline 99 % of control | dose: 3.75 mg/kg/injection, schedule: Q01DX009 (ip), vehicle: saline sonified 97 % of control | dose: 3.75 mg/kg/injection, schedule: Q01DX009 (ip), vehicle: saline 102 % of control | dose: 3.75 mg/kg/injection, schedule: Q04DX004 (ip), vehicle: saline 100 % of control | dose: 4.0 mg/kg/injection, schedule: Q01DX009 (ip), vehicle: saline with Tween-80 114 % of control | dose: 4.0 mg/kg/injection, schedule: Q01DX009 (ip), vehicle: saline 115 % of control | dose: 7.5 mg/kg/injection, schedule: Q01DX009 (ip), vehicle: alkali diluted with saline 105 % of control | dose: 7.5 mg/kg/injection, schedule: Q01DX009 (ip), vehicle: saline sonified 100 % of control | dose: 7.5 mg/kg/injection, schedule: Q01DX009 (ip), vehicle: saline 104 % of control | dose: 7.5 mg/kg/injection, schedule: Q04DX004 (ip), vehicle: saline 90 % of control | dose: 8.0 mg/kg/injection, schedule: Q01DX009 (ip), vehicle: saline with Tween-80 105 % of control and 112 % of control and 118 % of control | dose: 8.0 mg/kg/injection, schedule: Q01DX009 (ip), vehicle: saline 123 % of control | dose: 15.0 mg/kg/injection, schedule: Q01DX009 (ip), vehicle: alkali diluted with saline 110 % of control | dose: 15.0 mg/kg/injection, schedule: Q01DX009 (ip), vehicle: saline sonified 109 % of control | dose: 15.0 mg/kg/injection, schedule: Q01DX009 (ip), vehicle: saline with Tween-80 110 % of control | dose: 15.0 mg/kg/injection, schedule: Q01DX009 (ip), vehicle: saline 114 % of control | dose: 15.0 mg/kg/injection, schedule: Q04DX004 (ip), vehicle: saline 88 % of control | dose: 16.0 mg/kg/injection, schedule: Q01DX009 (ip), vehicle: saline with Tween-80 121 % of control and 123 % of control | dose: 25.0 mg/kg/injection, schedule: Q04DX003 (ip), vehicle: Klucel (hydroxypropylcellulose) (HPC) 94 % of control and 97 % of control | dose: 30.0 mg/kg/injection, schedule: Q01DX009 (ip), vehicle: alkali diluted with saline 119 % of control | dose: 30.0 mg/kg/injection, schedule: Q01DX009 (ip), vehicle: saline sonified 119 % of control | dose: 30.0 mg/kg/injection, schedule: Q01DX009 (ip), vehicle: saline with Tween-80 113 % of control | dose: 30.0 mg/kg/injection, schedule: Q01DX009 (ip), vehicle: saline 121 % of control | dose: 30.0 mg/kg/injection, schedule: Q01DX009 (oral), vehicle: saline 95 % of control | dose: 30.0 mg/kg/injection, schedule: Q04DX004 (ip), vehicle: saline 90 % of control | dose: 32.0 mg/kg/injection, schedule: Q01DX009 (ip), vehicle: Klucel (hydroxypropylcellulose) (HPC) 115 % of control | dose: 32.0 mg/kg/injection, schedule: Q01DX009 (ip), vehicle: saline with Tween-80 122 % of control | dose: 32.0 mg/kg/injection, schedule: Q04DX003 (ip), vehicle: saline with Tween-80 109 % of control and 110 % of control | [1] 108 % of control and 110 % of control | dose: 60.0 mg/kg/injection, schedule: Q01DX009 (ip), vehicle: saline with Tween-80 118 % of control | dose: 60.0 mg/kg/injection, schedule: Q04DX004 (ip), vehicle: saline 111 % of control | dose: 64.0 mg/kg/injection, schedule: Q01DX009 (ip), vehicle: Klucel (hydroxypropylcellulose) (HPC) 120 % of control | dose: 64.0 mg/kg/injection, schedule: Q04DX003 (ip), vehicle: saline with Tween-80 108 % of control and 115 % of control | dose: 64.0 mg/kg/injection, schedule: Q04DX003 (ip), vehicle: saline 115 % of control | [2] 108 % of control and 112 % of control | dose: 120.0 mg/kg/injection, schedule: Q01DX009 (ip), vehicle: saline with Tween-80 116 % of control | dose: 128.0 mg/kg/injection, schedule: Q01DX009 (ip), vehicle: Klucel (hydroxypropylcellulose) (HPC) 120 % of control | dose: 128.0 mg/kg/injection, schedule: Q04DX003 (ip), vehicle: saline with Tween-80 121 % of control | dose: 128.0 mg/kg/injection, schedule: Q04DX003 (ip), vehicle: saline 121 % of control | [3] 112 % of control | dose: 400.0 mg/kg/injection, schedule: Q04DX003 (ip), vehicle: Klucel (hydroxypropylcellulose) (HPC) 108 % of control | dose: 800.0 mg/kg/injection, schedule: Q04DX003 (ip), vehicle: Klucel (hydroxypropylcellulose) (HPC) 112 % of control

COc1ccc(C(=O)c2no[n+]([O-])c2C(=O)c2ccc(OC)cc2)cc1
inactive: dose: 12.5 mg/kg/injection, schedule: Q01DX009 (ip), vehicle: saline with Tween-80 95 % of control | dose: 25.0 mg/kg/injection, schedule: Q01DX009 (ip), vehicle: saline with Tween-80 107 % of control | dose: 50.0 mg/kg/injection, schedule: Q01DX009 (ip), vehicle: saline with Tween-80 101 % of control | [4] 95 % of control | [5] 87 % of control | [6] 113 % of control

COC(=O)CC1(O)C=CC(=O)C=C1
inactive: dose: 1.56 mg/kg/injection, schedule: Q01DX009 (ip), vehicle: Klucel (hydroxypropylcellulose) (HPC) 95 % of control | dose: 2.5 mg/kg/injection, schedule: Q01DX009 (ip), vehicle: saline with Tween-80 98 % of control | dose: 3.12 mg/kg/injection, schedule: Q01DX009 (ip), vehicle: Klucel (hydroxypropylcellulose) (HPC) 96 % of control | dose: 5.0 mg/kg/injection, schedule: Q01DX009 (ip), vehicle: saline with Tween-80 102 % of control | dose: 6.25 mg/kg/injection, schedule: Q01DX009 (ip), vehicle: Klucel (hydroxypropylcellulose) (HPC) 97 % of control | dose: 10.0 mg/kg/injection, schedule: Q01DX009 (ip), vehicle: saline with Tween-80 93 % of control | dose: 12.5 mg/kg/injection, schedule: Q01DX009 (ip), vehicle: Klucel (hydroxypropylcellulose) (HPC) 94 % of control | dose: 20.0 mg/kg/injection, schedule: Q01DX009 (ip), vehicle: saline with Tween-80 102 % of control | dose: 25.0 mg/kg/injection, schedule: Q01DX009 (ip), vehicle: Klucel (hydroxypropylcellulose) (HPC) 91 % of control

Nc1nc(-c2ccccc2N=NN2CCCCC2)nc2ccccc12
inactive: [1] 97 % of control | [2] 91 % of control | [3] 113 % of control

CCCCOC(=O)C(C)OC(=O)Nc1cccc(Cl)c1 (centres undefined)
inactive: [4] 88 % of control | [5] 100 % of control | [6] 92 % of control

CCOc1cc(N2CCOCC2)c(OCC)cc1N
inactive: dose: 6.25 mg/kg/injection, schedule: Q01DX009 (ip), vehicle: saline 95 % of control | dose: 12.5 mg/kg/injection, schedule: Q01DX009 (ip), vehicle: saline 102 % of control | dose: 25.0 mg/kg/injection, schedule: Q01DX009 (ip), vehicle: saline 100 % of control

C=CC(CO)N1CC1 (centres undefined)
inactive: dose: 1.0 mg/kg/injection, schedule: Q01DX009 (ip), vehicle: other 119 % of control | dose: 2.0 mg/kg/injection, schedule: Q01DX009 (ip), vehicle: other 116 % of control | dose: 4.0 mg/kg/injection, schedule: Q01DX009 (ip), vehicle: other 111 % of control | dose: 6.25 mg/kg/injection, schedule: Q04DX003 (ip), vehicle: other 100 % of control | dose: 8.0 mg/kg/injection, schedule: Q01DX009 (ip), vehicle: other 113 % of control | dose: 12.5 mg/kg/injection, schedule: Q04DX003 (ip), vehicle: other 100 % of control | dose: 25.0 mg/kg/injection, schedule: Q04DX003 (ip), vehicle: other 96 % of control | dose: 50.0 mg/kg/injection, schedule: Q04DX003 (ip), vehicle: other 109 % of control
